Results on 19 compounds are retold here after patent publication US11020395B2, “Cycloalkyl substituted triazole compounds as agonists of the APJ receptor” (AMGEN INC., priority 2016, dated 2021).

The assay concerns the target human APJ receptor (Homo sapiens (Human), UniProt P35414). As to the kind of experiment: [35S]GTPγS binding assay on membranes from CHO cells stably expressing human APJ receptor. In kind it is biochemical. The following applies: [35S]GTPγS SPA, read-out: Activity hAPJ SPA EC50 IP. The procedure:
[^35S]GTPγS Binding The human APJ receptor was cloned by polymerase chain reaction and the gene encoding the receptor was subcloned in pFLAG-CMV™-3 expression vector (Sigma, Saint Louis, Mo. USA) in-house at Amgen. A GTPγS binding assay was performed on membranes prepared from CHO cells stably expressing human APJ receptor. The optimum experimental conditions for the concentrations of GDP, MgCl2, and NaCl in the assay buffer were initially determined. […] Incubation was at RT for 90 min and the microplate was read using a ViewLux™ ultra HTS Microplate Imager (PerkinElmer, Inc.). All the results presented are means of several independent experiments and analyzed by non-linear regression methods using the commercially available program Prism (GraphPad, San Diego, Calif.) providing the EC50 values detailed in Table 25.

Sequence of human APJ receptor (P35414 whole entry): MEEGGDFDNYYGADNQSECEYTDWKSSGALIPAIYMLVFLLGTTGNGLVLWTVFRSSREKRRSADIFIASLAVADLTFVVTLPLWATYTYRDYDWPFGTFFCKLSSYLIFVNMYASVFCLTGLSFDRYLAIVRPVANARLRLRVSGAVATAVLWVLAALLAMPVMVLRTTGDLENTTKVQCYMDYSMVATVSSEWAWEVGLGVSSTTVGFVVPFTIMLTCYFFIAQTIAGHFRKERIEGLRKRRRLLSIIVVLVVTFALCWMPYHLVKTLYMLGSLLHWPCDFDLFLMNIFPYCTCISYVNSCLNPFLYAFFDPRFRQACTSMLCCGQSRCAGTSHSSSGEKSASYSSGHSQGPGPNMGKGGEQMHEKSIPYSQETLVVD

With `COc1ncnc(OC)c1-n1c(NS(=O)(=O)[C@@H](C)[C@H](OC)c2ncc(Cl)cn2)nnc1[C@H]1CC[C@@H]1F` (single isomer, unassigned) [Example 182.0, (1R,2S)-1-(5-chloropyrimidin-2-yl)-N-(4-(4,6-dimethoxypyrimidin-5-yl)-5-((1R,2S)-2-fluorocyclobutyl)-4H-1,2,4-triazol-3-yl)-1-methoxypropane-2-sulfonamide or (1R,2S)-1-(5-chloropyrimidin-2-yl)-N-(4-(4,6-dimethoxypyrimidin-5-yl)-5-((1S,2R)-2-fluorocyclobutyl)-4H-1,2,4-triazol-3-yl)-1-methoxypropane-2-sulfonamide], the EC50 – broadly, the concentration giving half of the maximal effect – turned out to be 10 nM.

Consider `COc1cccc(OC)c1-n1c(NS(=O)(=O)[C@@H](C)[C@H](OC)c2ncc(Cl)cn2)nnc1C1CCC1C#N` (single isomer, unassigned) [Example 170.0, (1R,2S)-1-(5-chloropyrimidin-2-yl)-N-(5-((1R,2R)-2-cyanocyclobutyl)-4-(2,6-dimethoxyphenyl)-4H-1,2,4-triazol-3-yl)-1-methoxypropane-2-sulfonamide or (1R,2S)-1-(5-chloropyrimidin-2-yl)-N-(5-((1R,2R)-2-cyanocyclobutyl)-4-(2,6-dimethoxyphenyl)-4H-1,2,4-triazol-3-yl)-1-methoxypropane-2-sulfonamide], for which the EC50 stood at 18 nM.

Consider “(2S,3R)-3-(5-chloropyrimidin-2-yl)-N-(4-(2,6-dimethoxyphenyl)-5-((S)-spiro[2.2]pentan-1-yl)-4H-1,2,4-triazol-3-yl)butane-2-sulfonamide or (2S,3R)-3-(5-chloropyrimidin-2-yl)-N-(4-(2,6-dimethoxyphenyl)-5-((R)-spiro[2.2]pentan-1-yl)-4H-1,2,4-triazol-3-yl)butane-2-sulfonamide [Example 218.0]”, for which the EC50 turned out to be 1.1 nM.

Regarding `COc1cccc(OC)c1-n1c(NS(=O)(=O)[C@@H](C)[C@H](OC)c2ncc(Cl)cn2)nnc1[C@H]1CCC1(F)F` (single isomer, unassigned) [Example 160.0, (1R,2S)-1-(5-chloropyrimidin-2-yl)-N-(5-((R)-2,2-difluorocyclobutyl)-4-(2,6-dimethoxyphenyl)-4H-1,2,4-triazol-3-yl)-1-methoxypropane-2-sulfonamide or (1R,2S)-1-(5-chloropyrimidin-2-yl)-N-(5-((S)-2,2-difluorocyclobutyl)-4-(2,6-dimethoxyphenyl)-4H-1,2,4-triazol-3-yl)-1-methoxypropane-2-sulfonamide], the EC50 was 27 nM.

As to `COc1cccc(OC)c1-n1c(NS(=O)(=O)[C@@H](C)[C@H](OC)c2ncc(Cl)cn2)nnc1[C@H]1C[C@@H](CO)C1` (single isomer, unassigned) [Example 123.0, (1R,2S)-1-(5-chloro-2-pyrimidinyl)-N-(4-(2,6-dimethoxyphenyl)-5-(cis-3-(hydroxymethyl)cyclobutyl)-4H-1,2,4-triazol-3-yl)-1-methoxy-2-propanesulfonamide or (1R,2S)-1-(5-chloro-2-pyrimidinyl)-N-(4-(2,6-dimethoxyphenyl)-5-(trans-3-(hydroxymethyl)cyclobutyl)-4H-1,2,4-triazol-3-yl)-1-methoxy-2-propanesulfonamide], the EC50 is 5.1 nM.

Turning to `COc1ncnc(OC)c1-n1c(NS(=O)(=O)[C@@H](C)[C@H](OC)c2ncc(Cl)cn2)nnc1[C@H]1CC[C@@H](C(F)F)CC1` (single isomer, unassigned) [Example 145.0, (1R,2S)-1-(5-chloro-2-pyrimidinyl)-N-(5-(cis-4-(difluoromethyl)cyclohexyl)-4-(4,6-dimethoxy-5-pyrimidinyl)-4H-1,2,4-triazol-3-yl)-1-methoxy-2-propanesulfonamide or (1R,2S)-1-(5-chloro-2-pyrimidinyl)-N-(5-(trans-4-(difluoromethyl)cyclohexyl)-4-(4,6-dimethoxy-5-pyrimidinyl)-4H-1,2,4-triazol-3-yl)-1-methoxy-2-propanesulfonamide], the EC50 amounted to 4.8 nM.

Turning to “(1R,2S)-1-(5-chloropyrimidin-2-yl)-N-(4-(4,6-dimethoxypyrimidin-5-yl)-5-((R)-spiro[2.2]pentan-1-yl)-4H-1,2,4-triazol-3-yl)-1-methoxypropane-2-sulfonamideor (1R,2S)-1-(5-chloropyrimidin-2-yl)-N-(4-(4,6-dimethoxypyrimidin-5-yl)-5-((S)-spiro[2.2]pentan-1-yl)-4H-1,2,4-triazol-3-yl)-1-methoxypropane-2-sulfonamide [Example 105.0]”, the EC50 worked out at 0.92 nM.

Take “(1R,2S)-1-(5-chloropyrimidin-2-yl)-N-(4-(2,6-dimethoxyphenyl)-5-((S)-spiro[2.2]pentan-1-yl)-4H-1,2,4-triazol-3-yl)-1-methoxypropane-2-sulfonamide or (1R,2S)-1-(5-chloropyrimidin-2-yl)-N-(4-(2,6-dimethoxyphenyl)-5-((R)-spiro[2.2]pentan-1-yl)-4H-1,2,4-triazol-3-yl)-1-methoxypropane-2-sulfonamide [Example 222.0]”: the EC50 turned out to be 24 nM.

Regarding `COc1cccc(OC)c1-n1c(NS(=O)(=O)[C@@H](C)[C@H](OC)c2ncc(Cl)cn2)nnc1[C@H]1CC[C@@H](C#N)CC1` (single isomer, unassigned) [Example 199.0, (1R,2S)-1-(5-chloropyrimidin-2-yl)-N-(5-((1r,4R)-4-cyanocyclohexyl)-4-(2,6-dimethoxyphenyl)-4H-1,2,4-triazol-3-yl)-1-methoxypropane-2-sulfonamide or (1R,2S)-1-(5-chloropyrimidin-2-yl)-N-(5-((1s,4R)-4-cyanocyclohexyl)-4-(2,6-dimethoxyphenyl)-4H-1,2,4-triazol-3-yl)-1-methoxypropane-2-sulfonamide], the EC50 was 8.1 nM.

As to “(1R,2S)-1-(5-chloropyrimidin-2-yl)-N-(4-(2,6-dimethoxyphenyl)-5-((S)-spiro[2.2]pentan-1-yl)-4H-1,2,4-triazol-3-yl)-1-methoxypropane-2-sulfonamide or (1R,2S)-1-(5-chloropyrimidin-2-yl)-N-(4-(2,6-dimethoxyphenyl)-5-((R)-spiro[2.2]pentan-1-yl)-4H-1,2,4-triazol-3-yl)-1-methoxypropane-2-sulfonamide [Example 223.0]”, the EC50 came to 1.2 nM.

In the case of `COc1cccc(OC)c1-n1c(NS(=O)(=O)[C@@H](C)[C@H](OC)c2ncc(Cl)cn2)nnc1[C@H]1C[C@@](C)(F)C1` (single isomer, unassigned) [Example 198.0, (1R,2S)-1-(5-chloropyrimidin-2-yl)-N-(4-(2,6-dimethoxyphenyl)-5-((1s,3R)-3-fluoro-3-methylcyclobutyl)-4H-1,2,4-triazol-3-yl)-1-methoxypropane-2-sulfonamide or ((1R,2S)-1-(5-chloropyrimidin-2-yl)-N-(4-(2,6-dimethoxyphenyl)-5-((1r,3S)-3-fluoro-3-methylcyclobutyl)-4H-1,2,4-triazol-3-yl)-1-methoxypropane-2-sulfonamide], the EC50 came to 3.7 nM.

In the case of `COc1cccc(OC)c1-n1c(NS(=O)(=O)[C@@H](C)[C@@H](OC(C)C)c2ncc(C)cn2)nnc1C1CCC1` [Example 142.0], the EC50 turned out to be 5.1 nM.

Consider `COc1cccc(OC)c1-n1c(NS(=O)(=O)[C@@H](C)[C@H](OC)c2ncc(C)cn2)nnc1C1CCC1` [Example 141.0], for which the EC50 came to 33 nM.

`COc1ncnc(OC)c1-n1c(NS(=O)(=O)[C@@H](C)[C@H](OC)c2ncc(Cl)cn2)nnc1[C@H]1CC[C@H]1C(F)F` (racemic) [Example 146.0]: the EC50 turned out to be 26 nM.

As to `COc1cccc(OC)c1-n1c(NS(=O)(=O)[C@@H](C)[C@H](C)c2ncc(C)cn2)nnc1C1CCCC1` [Example 17.0, (2S,3R)-N-(5-cyclopentyl-4-(2,6-dimethoxyphenyl)-4H-1,2,4-triazol-3-yl)-3-(5-methylpyrimidin-2-yl)butane-2-sulfonamide], the EC50 was 1.1 nM.

Consider `COc1ncnc(OC)c1-n1c(NS(=O)(=O)[C@@H](C)[C@H](C)c2ncc(C)cn2)nnc1C1CC2(CC2)C1` [Example 202.0], for which the EC50 came out at 4.2 nM.

With `COc1cccc(OC)c1-n1c(NS(=O)(=O)[C@@H](C)[C@H](C)c2ncc(C)cn2)nnc1[C@H]1C[C@H](Cl)C1` (single isomer, unassigned) [Example 193.0, (2S,3R)-N-(5-((1r,3S)-3-chlorocyclobutyl)-4-(2,6-dimethoxyphenyl)-4H-1,2,4-triazol-3-yl)-3-(5-methylpyrimidin-2-yl)butane-2-sulfonamide or (2S,3R)-N-(5-((1s,3R)-3-chlorocyclobutyl)-4-(2,6-dimethoxyphenyl)-4H-1,2,4-triazol-3-yl)-3-(5-methylpyrimidin-2-yl)butane-2-sulfonamide], the EC50 was determined as 10 nM.

As for `COc1ncnc(OC)c1-n1c(NS(=O)(=O)[C@@H](C)[C@H](C)c2ncc(F)cn2)nnc1C1CCC1` [Example 84.0, (2S,3R)-N-(5-cyclobutyl-4-(4,6-dimethoxy-5-pyrimidinyl)-4H-1,2,4-triazol-3-yl)-3-(5-fluoro-2-pyrimidinyl)-2-butanesulfonamide], the EC50 amounted to 10.8 nM.

Take `COc1cccc(OC)c1-n1c(NS(=O)(=O)[C@@H](C)[C@H](OC)c2ncc(Cl)cn2)nnc1C1CCC1C#N` (single isomer, unassigned) [Example 169.0, (1R,2S)-1-(5-chloropyrimidin-2-yl)-N-(5-((1R,2S)-2-cyanocyclobutyl)-4-(2,6-dimethoxyphenyl)-4H-1,2,4-triazol-3-yl)-1-methoxypropane-2-sulfonamide or (1R,2S)-1-(5-chloropyrimidin-2-yl)-N-(5-((1S,2R)-2-cyanocyclobutyl)-4-(2,6-dimethoxyphenyl)-4H-1,2,4-triazol-3-yl)-1-methoxypropane-2-sulfonamide]: the EC50 came to 21 nM.
